Experimental data as given in patent US20240343733A1, “COMPOUNDS FOR TARGETING DEGRADATION OF IRAK4 PROTEINS” (BIOGEN MA INC., priority 2021, published 2024).

target: T1, IRAK4 (Homo sapiens, UniProt Q9NWZ3); assay: IRAK4 Degradation Assay, HiBiT Method; type: cell-based; settings: 293T cells expressing HiBiT-tagged IRAK4, 6 hours
T1 construct: 293Tcells expressing HiBiT-tagged IRAK4 were then added into 384-well plates
T1 sequence (Q9NWZ3 1-460): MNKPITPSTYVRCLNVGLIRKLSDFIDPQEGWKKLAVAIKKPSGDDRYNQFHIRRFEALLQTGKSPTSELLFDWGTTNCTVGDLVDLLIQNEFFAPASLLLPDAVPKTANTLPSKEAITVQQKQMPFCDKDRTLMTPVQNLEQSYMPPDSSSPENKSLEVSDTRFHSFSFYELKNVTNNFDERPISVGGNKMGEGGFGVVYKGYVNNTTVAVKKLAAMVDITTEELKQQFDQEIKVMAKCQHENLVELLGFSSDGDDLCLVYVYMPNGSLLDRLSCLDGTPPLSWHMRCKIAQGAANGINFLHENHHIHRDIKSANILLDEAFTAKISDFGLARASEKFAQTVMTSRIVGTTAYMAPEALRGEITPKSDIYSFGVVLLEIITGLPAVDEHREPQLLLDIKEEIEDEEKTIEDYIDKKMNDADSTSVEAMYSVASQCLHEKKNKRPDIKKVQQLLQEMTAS
Experimental: Assay 1. IRAK4 Degradation Assay, HiBiT Method
Selected compounds were tested in an IRAK4 degradation assay using the HiBiT Method.
Phenol red-free Dulbecco's modified Eagle medium (DMEM) and fetal bovine serum (FBS) were purchased from Gibco (Grand Island, NY, USA). The Nano-Glo® HiBiT Lytic Assay System was purchased from Promega (Madison, WI, USA). Cell culture flasks and 384-well microplates were acquired from VWR (Radnor, PA, USA). The 293Tcell line was engineered by knocking-in a HiBiT fusion tag into the C-terminal of the IRAK4 gene in 293T cells (Synthego, Redwood City, CA, USA).
IRAK4 degradation was measured via the quantification of luminescent signals using the Nano-Glo® HiBiT Lytic Assay kit. Test compounds were added to 384-well plates in duplicate using an 11-point half-log dilution series, with the highest dose set at […]. 293Tcells expressing HiBiT-tagged IRAK4 were then added into 384-well plates at a cell density of 10,000 cells per well. The plates were kept at 37° C. with 5% CO2 for 6 hours. Cells that were treated only with DMSO served as the negative control; wells that contained only assay media served as the background control. After the 6-hour incubation, Nano-Glo® HiBiT Lytic Assay reagents were added to the cells. Luminescence was acquired using an EnVision™ Multilabel Reader (PerkinElmer, Santa Clara, CA, USA).

SMILES | DC50 [nM]
CC(C)Oc1cc2nn([C@H]3CC[C@H](CN4CCC(c5ccc(O[C@@H]6CCC(=O)NC6=O)cc5)CC4)CC3)cc2cc1C(=O)Nc1cccn(C2CC2)c1=O (single isomer, unassigned) [Example 143] | 10 to 100
CC(C)Oc1cc2nc(C3CCC(CN4CCC(c5ccc(NC6CCC(=O)NC6=O)cc5F)CC4)CC3)cn2cc1C(=O)Nc1cccc(C(F)(F)F)n1 (stereo not shown) [Example 1, 2-[4-[[4-[4-[(2,6-dioxo-3-piperidyl)amino]-2-fluoro-phenyl]-1-piperidyl]methyl]cyclohexyl]-7-isopropoxy-N-[6-(trifluoromethyl)-2-pyridyl]imidazo[1,2-a]pyridine-6-carboxamide] | 100 to 500
CC(C)Oc1cc2nc([C@H]3CC[C@H](CN4CCC(c5ccc(NC6CCC(=O)NC6=O)cc5)CC4)CC3)cn2cc1C(=O)Nc1cccc(C(F)(F)F)n1 (stereo partly shown) [Example 2, 2-[4-[[4-[4-[(2,6-dioxo-3-piperidyl)amino]phenyl]-1-piperidyl]methyl]cyclohexyl]-7-isopropoxy-N-[6-(trifluoromethyl)-2-pyridyl]imidazo[1,2-a]pyridine-6-carboxamide] | 10 to 100
CC(C)Oc1cc2nc([C@H]3CC[C@H](CN4CCC(c5cccc6c5n(C)c(=O)n6C5CCC(=O)NC5=O)CC4)CC3)cn2cc1C(=O)Nc1cccc(C(F)(F)F)n1 (stereo partly shown) [Example 3, 2-[4-[[4-[1-(2,6-dioxo-3-piperidyl)-3-methyl-2-oxo-benzimidazol-4-yl]-1-piperidyl]methyl]cyclohexyl]-7-isopropoxy-N-[6-(trifluoromethyl)-2-pyridyl]imidazo[1,2-a]pyridine-6-carboxamide] | 100 to 500
CC(C)Oc1cc2nc([C@H]3CC[C@H](CN4CCC(c5ccc(C6CCC(=O)NC6=O)cc5)CC4)CC3)cn2cc1C(=O)Nc1cccc(C(F)(F)F)n1 (stereo partly shown) [Example 4, 2-[4-[[4-[4-(2,6-dioxo-3-piperidyl)phenyl]-1-piperidyl]methyl]cyclohexyl]-7-isopropoxy-N-[6-(trifluoromethyl)-2-pyridyl]imidazo[1,2-a]pyridine-6-carboxamide] | 500 to 1000
CC(C)Oc1cc2nc([C@H]3CC[C@H](CN4CCC(c5ccc6c(c5)n(C)c(=O)n6C5CCC(=O)NC5=O)CC4)CC3)cn2cc1C(=O)Nc1cccc(C(F)(F)F)n1 (stereo partly shown) [Example 5, 2-[4-[[4-[1-(2,6-dioxo-3-piperidyl)-3-methyl-2-oxo-benzimidazol-5-yl]-1-piperidyl]methyl]cyclohexyl]-7-isopropoxy-N-[6-(trifluoromethyl)-2-pyridyl]imidazo[1,2-a]pyridine-6-carboxamide] | 500 to 1000
CC(C)Oc1cc2nc([C@H]3CC[C@H](CN4CCC(c5ccc(C6CCC(=O)NC6=O)cc5F)CC4)CC3)cn2cc1C(=O)Nc1cccc(C(F)(F)F)n1 (stereo partly shown) [Example 6, 2-[4-[[4-[4-(2,6-dioxo-3-piperidyl)-2-fluoro-phenyl]-1-piperidyl]methyl]cyclohexyl]-7-isopropoxy-N-[6-(trifluoromethyl)-2-pyridyl]imidazo[1,2-a]pyridine-6-carboxamide] | 100 to 500
CC(C)Oc1cc2nc([C@H]3CC[C@H](CN(C)C4CCN(c5ccc(NC6CCC(=O)NC6=O)cc5)CC4)CC3)cn2cc1C(=O)Nc1cccc(C(F)(F)F)n1 (stereo partly shown) [Example 7, 2-[4-[[[1-[4-[(2,6-dioxo-3-piperidyl)amino]phenyl]-4-piperidyl]-methyl-amino]methyl]cyclohexyl]-7-isopropoxy-N-[6-(trifluoromethyl)-2-pyridyl]imidazo[1,2-a]pyridine-6-carboxamide] | 100 to 500
CC(C)Oc1cc2nc([C@H]3CC[C@H](CN(C)C4CCN(Cc5ccc(NC6CCC(=O)NC6=O)cc5)CC4)CC3)cn2cc1C(=O)Nc1cccc(C(F)(F)F)n1 (stereo partly shown) [Example 8, 2-[4-[[[1-[[4-[(2,6-dioxo-3-piperidyl)amino]phenyl]methyl]-4-piperidyl]-methyl-amino]methyl]cyclohexyl]-7-isopropoxy-N-[6-(trifluoromethyl)-2-pyridyl]imidazo[1,2-a]pyridine-6-carboxamide] | > 1000
CC(C)Oc1cc2nc([C@H]3CC[C@H](CN(C)C4CCN(c5cccc(NC6CCC(=O)NC6=O)c5)CC4)CC3)cn2cc1C(=O)Nc1cccc(C(F)(F)F)n1 (stereo partly shown) [Example 9, 2-[4-[[[1-[3-[(2,6-dioxo-3-piperidyl)amino]phenyl]-4-piperidyl]-methyl-amino]methyl]cyclohexyl]-7-isopropoxy-N-[6-(trifluoromethyl)-2-pyridyl]imidazo[1,2-a]pyridine-6-carboxamide] | 500 to 1000
CC(C)Oc1cc2nc([C@H]3CC[C@H](CN(C)C4CCN(c5ccc6c(c5)n(C)c(=O)n6C5CCC(=O)NC5=O)CC4)CC3)cn2cc1C(=O)Nc1cccc(C(F)(F)F)n1 (stereo partly shown) [Example 10, 2-[4-[[[1-[1-(2,6-dioxo-3-piperidyl)-3-methyl-2-oxo-benzimidazol-5-yl]-4-piperidyl]-methyl-amino]methyl]cyclohexyl]-7-isopropoxy-N-[6-(trifluoromethyl)-2-pyridyl]imidazo[1,2-a]pyridine-6-carboxamide] | 10 to 100
CC(C)Oc1cc2nc([C@H]3CC[C@H](CN(C)C4CCN(c5cccc(C6CCC(=O)NC6=O)c5)CC4)CC3)cn2cc1C(=O)Nc1cccc(C(F)(F)F)n1 (stereo partly shown) [Example 11, 2-[4-[[[1-[3-(2,6-dioxo-3-piperidyl)phenyl]-4-piperidyl]-methyl-amino]methyl]cyclohexyl]-7-isopropoxy-N-[6-(trifluoromethyl)-2-pyridyl]imidazo[1,2-a]pyridine-6-carboxamide] | 10 to 100
CC(C)Oc1cc2nc([C@H]3CC[C@H](CN4CCC(c5cccc(NC6CCC(=O)NC6=O)c5)CC4)CC3)cn2cc1C(=O)Nc1cccc(C(F)(F)F)n1 (stereo partly shown) [Example 12, 2-[4-[[4-[3-[(2,6-dioxo-3-piperidyl)amino]phenyl]-1-piperidyl]methyl]cyclohexyl]-7-isopropoxy-N-[6-(trifluoromethyl)-2-pyridyl]imidazo[1,2-a]pyridine-6-carboxamide] | 100 to 500
CC(C)Oc1cc2nc([C@H]3CC[C@H](CN(C)C4CCN(c5ccc(C6CCC(=O)NC6=O)cc5)CC4)CC3)cn2cc1C(=O)Nc1cccc(C(F)(F)F)n1 (stereo partly shown) [Example 13, 2-[4-[[[1-[4-(2,6-dioxo-3-piperidyl)phenyl]-4-piperidyl]-methyl-amino]methyl]cyclohexyl]-7-isopropoxy-N-[6-(trifluoromethyl)-2-pyridyl]imidazo[1,2-a]pyridine-6-carboxamide] | 10 to 100
CC(C)Oc1cc2nc([C@H]3CC[C@H](CN(C)C4CCN(Cc5cccc(NC6CCC(=O)NC6=O)c5)CC4)CC3)cn2cc1C(=O)Nc1cccc(C(F)(F)F)n1 (stereo partly shown) [Example 14, 2-[4-[[[1-[[3-[(2,6-dioxo-3-piperidyl)amino]phenyl]methyl]-4-piperidyl]-methyl-amino]methyl]cyclohexyl]-7-isopropoxy-N-[6-(trifluoromethyl)-2-pyridyl]imidazo[1,2-a]pyridine-6-carboxamide] | 500 to 1000
CC(C)Oc1cc2nc(C3CCC(CN4CCC(c5ccc(C6CCC(=O)NC6=O)cc5)CC4)CC3)cn2cc1C(=O)Nc1cccc(C(F)F)n1 (stereo not shown) [Example 15, N-[6-(difluoromethyl)-2-pyridyl]-2-[4-[[4-[4-(2,6-dioxo-3-piperidyl)phenyl]-1-piperidyl]methyl]cyclohexyl]-7-isopropoxy-imidazo[1,2-a]pyridine-6-carboxamide] | 10 to 100
CC(C)Oc1cc2nc([C@H]3CC[C@H](CN4CCC(c5ccc(NC6CCC(=O)NC6=O)cc5)CC4)CC3)cn2cc1C(=O)Nc1cccc(C(F)F)n1 (stereo partly shown) [Example 16, N-[6-(difluoromethyl)-2-pyridyl]-2-[4-[[4-[4-[(2,6-dioxo-3-piperidyl)amino]phenyl]-1-piperidyl]methyl]cyclohexyl]-7-isopropoxy-imidazo[1,2-a]pyridine-6-carboxamide] | 10 to 100
CC(C)Oc1cc2nc([C@H]3CC[C@H](CN4CCC(c5cccc6c5n(C)c(=O)n6C5CCC(=O)NC5=O)CC4)CC3)cn2cc1C(=O)Nc1cccc(C(F)F)n1 (stereo partly shown) [Example 17, N-[6-(difluoromethyl)-2-pyridyl]-2-[4-[[4-[1-(2,6-dioxo-3-piperidyl)-3-methyl-2-oxo-benzimidazol-4-yl]-1-piperidyl]methyl]cyclohexyl]-7-isopropoxy-imidazo[1,2-a]pyridine-6-carboxamide] | 10 to 100
CC(C)Oc1cc2nc([C@H]3CC[C@H](CN4CCC(c5ccc(NC6CCC(=O)NC6=O)cc5F)CC4)CC3)cn2cc1C(=O)Nc1cccc(C(F)F)n1 (stereo partly shown) [Example 18, N-[6-(difluoromethyl)-2-pyridyl]-2-[4-[[4-[4-[(2,6-dioxo-3-piperidyl)amino]-2-fluoro-phenyl]-1-piperidyl]methyl]cyclohexyl]-7-isopropoxy-imidazo[1,2-a]pyridine-6-carboxamide] | 10 to 100
